Patent publication US8288421B2, “Phenylaminopyridines” (Basilea Pharmaceutica AG, priority 2004, dated 2012)

Legend:
HeLa [1] = assay: Hoechst 33342 nuclear staining; format: cell-based, human; details: 48 h read-out
Experimental: (§1) This assay is performed in 96 well tissue culture plates. Appropriate number of cells (adherent cells: 3-5*10^3, suspension cells: 8-10*10^3) are being seeded out in 80 μl complete medium. Adherent cells are incubated for 24 h for proper spreading out before addition of test compounds while suspension cells are immediately treated with test compounds after seeding out. The test compounds are added in 20 μl complete medium containing max 5% DMSO. The final compound concentrations in the assays are in the range of 0.001 μM-10 μM. […] The assay plates are then further incubated for 30 minutes and subsequently analyzed with a standard inverted fluorescence microscope.
(§2) The readout allows the determination of the fraction of apoptotic nuclei as well as other morphological criteria specific for apoptosis as a function of the treatment. The scores A, B, C and D are explained at the end of the Table.

Jurkat [2] = assay: Hoechst 33342 nuclear staining; format: cell-based, human; details: 48 h read-out
Experimental: as §1, §2

PBL [3] = assay: Hoechst 33342 nuclear staining; format: cell-based, human; details: 48 h read-out
Experimental: as §1, §2

Jily [4] = assay: Hoechst 33342 nuclear staining; format: cell-based; details: 48 h read-out
Experimental: as §1, §2

MRC5 [5] = assay: Hoechst 33342 nuclear staining; format: cell-based; details: MRC5, 48 h read-out
Experimental: as §1, §2

HT1080 = assay: MTS proliferation assay; format: cell-based, human; details: HT1080, 72 h read-out
Experimental: (§3) The assay is performed in 96 well tissue culture plates. The cells (range: 1.5*10^3-10^4) are seeded out in 80 μl complete medium 24 h prior to compound treatment. The test compounds are added in 20 μl complete medium containing max 5% DMSO. The final compound concentrations in the assays are in the range of 0.001 μM-10 μM. The assay plates are incubated for 72 h at culture conditions. The MTS reagent is prepared according to the manufacturer's protocol (Promega G1111). 20 μl MTS reagent are added to each well, the assay plates are quickly spun and incubated for another 3 h at culture conditions. Subsequently, the plates are shortly shaked and absorption measured with a microplate-reader at 492 nm. The scores A, B, C and D are explained at the end of the Table.

HeLa [6] = assay: MTS proliferation assay; format: cell-based, human; details: 72 h read-out
Experimental: as §3

Jurkat [7] = assay: MTS proliferation assay; format: cell-based, human; details: 72 h read-out
Experimental: as §3

Jily [8] = assay: MTS proliferation assay; format: cell-based; details: 72 h read-out
Experimental: as §3

MRC5 [9] = assay: MTS proliferation assay; format: cell-based; details: MRC5, 72 h read-out
Experimental: as §3

HeLa [10] = assay: Mitochondrial membrane potential (JC-1); format: cell-based, human; details: 48 h read-out
Experimental: as §1, with “20 μal” for “20 μl”, “DMSO.” for “DMSO. The final compound concentrations in the assays are in the range of 0.001 μM-10 μM.”, “fluorescence microscope by using the FITC and TRITC filters.” for “fluorescence microscope.”
(§4) The scores A, B, C and D are explained at the end of the Table.

Jurkat [11] = assay: Mitochondrial membrane potential (JC-1); format: cell-based, human; details: 48 h read-out
Experimental: as §1, with “20 μal” for “20 μl”, “DMSO.” for “DMSO. The final compound concentrations in the assays are in the range of 0.001 μM-10 μM.”, “fluorescence microscope by using the FITC and TRITC filters.” for “fluorescence microscope.”
as §4

MCF7 = assay: Mitochondrial membrane potential (JC-1); format: cell-based, human; details: MCF7, 48 h read-out
Experimental: as §1, with “20 μal” for “20 μl”, “DMSO.” for “DMSO. The final compound concentrations in the assays are in the range of 0.001 μM-10 μM.”, “fluorescence microscope by using the FITC and TRITC filters.” for “fluorescence microscope.”
as §4

PBL [12] = assay: Mitochondrial membrane potential (JC-1); format: cell-based, human; details: 48 h read-out
Experimental: as §1, with “20 μal” for “20 μl”, “DMSO.” for “DMSO. The final compound concentrations in the assays are in the range of 0.001 μM-10 μM.”, “fluorescence microscope by using the FITC and TRITC filters.” for “fluorescence microscope.”
as §4

DOHH2 = assay: Mitochondrial membrane potential (JC-1); format: cell-based; details: DOHH2, 48 h read-out
Experimental: as §1, with “20 μal” for “20 μl”, “DMSO.” for “DMSO. The final compound concentrations in the assays are in the range of 0.001 μM-10 μM.”, “fluorescence microscope by using the FITC and TRITC filters.” for “fluorescence microscope.”
as §4

SMILES | EC50 (HeLa [1]) | EC50 (Jurkat [2]) | EC50 (PBL [3]) | EC50 (Jily [4]) | EC50 (MRC5 [5]) | IC50 (HT1080) | IC50 (HeLa [6]) | IC50 (Jurkat [7]) | IC50 (Jily [8]) | IC50 (MRC5 [9]) | EC50 (HeLa [10]) | EC50 (Jurkat [11]) | EC50 (MCF7) | EC50 (PBL [12]) | EC50 (DOHH2)
COc1ccc(Nc2cncc(-c3cccc(NC(=O)c4cccnc4)c3)c2)cc1 [Example 13] | 0.1 to 1 µM | 0.1 to 1 µM | > 1 µM | 0.1 to 1 µM | > 1 µM | 0.1 to 1 µM | 0.1 to 1 µM | 0.01 to 0.1 µM | 0.01 to 0.1 µM | 0.1 to 1 µM | 0.1 to 1 µM | 0.01 to 0.1 µM | > 1 µM | > 1 µM | 0.1 to 1 µM
COc1ccc(Nc2cncc(-c3cccc(NS(=O)(=O)c4ccccc4)c3)c2)cc1 [Example 23] | 0.1 to 1 µM | 0.1 to 1 µM | > 1 µM | 0.1 to 1 µM | > 1 µM | 0.1 to 1 µM | 0.1 to 1 µM | 0.1 to 1 µM | 0.1 to 1 µM | 0.1 to 1 µM | 0.1 to 1 µM | 0.1 to 1 µM | 0.1 to 1 µM | > 1 µM | 0.1 to 1 µM
COc1ccc(Nc2cncc(-c3cccc(NC(=O)c4ccccc4)c3)c2)cc1OC [Example 29] | 0.1 to 1 µM | 0.1 to 1 µM | > 1 µM | 0.1 to 1 µM | > 1 µM | > 1 µM | > 1 µM | 0.1 to 1 µM | 0.1 to 1 µM | > 1 µM | > 1 µM | 0.1 to 1 µM | > 1 µM | > 1 µM | > 1 µM
O=C(Nc1cccc(-c2cncc(Nc3ccc(OCc4ccccc4)cc3)c2)c1)c1ccccc1 [Example 27] | > 1 µM | > 1 µM | > 1 µM | > 1 µM | > 1 µM | > 1 µM | > 1 µM | > 1 µM | > 1 µM | > 1 µM | > 1 µM | > 1 µM | > 1 µM | > 1 µM | > 1 µM
COc1ccc(Nc2cncc(-c3cccc(NC(=O)c4cnccn4)c3)c2)cc1 [Example 12] | 0.01 to 0.1 µM | 0.01 to 0.1 µM | > 1 µM | 0.01 to 0.1 µM | 0.1 to 1 µM | 0.01 to 0.1 µM | 0.01 to 0.1 µM | < 0.01 µM | 0.01 to 0.1 µM | 0.1 to 1 µM | 0.1 to 1 µM | 0.01 to 0.1 µM | 0.1 to 1 µM | > 1 µM | 0.01 to 0.1 µM
COc1ccc(Nc2cncc(-c3cccc(NC(=O)c4ccccn4)c3)c2)cc1 [Example 17] | 0.01 to 0.1 µM | 0.1 to 1 µM | > 1 µM | 0.01 to 0.1 µM | > 1 µM | 0.01 to 0.1 µM | 0.01 to 0.1 µM | < 0.01 µM | 0.01 to 0.1 µM | 0.01 to 0.1 µM | 0.01 to 0.1 µM | 0.01 to 0.1 µM | > 1 µM | > 1 µM | 0.01 to 0.1 µM
COc1ccc(Nc2cncc(-c3cccc(NC(=O)c4cccc(OC)c4)c3)c2)cc1 [Example 25] | > 1 µM | 0.1 to 1 µM | > 1 µM | > 1 µM | > 1 µM | > 1 µM | > 1 µM | 0.1 to 1 µM | 0.1 to 1 µM | > 1 µM | > 1 µM | 0.1 to 1 µM | > 1 µM | > 1 µM | > 1 µM
COc1ccc(Nc2cncc(-c3cccc(NC(=O)c4ccccc4)c3)c2)c(OC)c1 [Example 30] | > 1 µM | 0.1 to 1 µM | > 1 µM | 0.1 to 1 µM | > 1 µM | > 1 µM | > 1 µM | 0.1 to 1 µM | 0.1 to 1 µM | > 1 µM | > 1 µM | > 1 µM | > 1 µM | > 1 µM | > 1 µM
COc1ccc(Nc2cncc(-c3cccc(NC(C)=O)c3)c2)cc1 [Example 8] | 0.1 to 1 µM | 0.1 to 1 µM | > 1 µM | 0.1 to 1 µM | 0.1 to 1 µM | 0.1 to 1 µM | 0.1 to 1 µM | 0.1 to 1 µM | 0.1 to 1 µM | > 1 µM | 0.1 to 1 µM | 0.1 to 1 µM | > 1 µM | > 1 µM | 0.1 to 1 µM
COc1ccc(Nc2cncc(-c3cccc(NC(=O)Cc4ccccc4)c3)c2)cc1 [Example 15] | 0.1 to 1 µM | 0.1 to 1 µM | > 1 µM | 0.1 to 1 µM | > 1 µM | 0.1 to 1 µM | 0.1 to 1 µM | 0.1 to 1 µM | 0.1 to 1 µM | 0.1 to 1 µM | 0.1 to 1 µM | 0.01 to 0.1 µM | > 1 µM | > 1 µM | 0.1 to 1 µM
CCC(=O)Nc1cccc(-c2cncc(Nc3ccc(OC)cc3)c2)c1 [Example 21] | 0.1 to 1 µM | 0.1 to 1 µM | > 1 µM | 0.1 to 1 µM | > 1 µM | 0.1 to 1 µM | 0.1 to 1 µM | 0.01 to 0.1 µM | 0.1 to 1 µM | 0.1 to 1 µM | 0.1 to 1 µM | 0.1 to 1 µM | > 1 µM | > 1 µM | 0.1 to 1 µM
